Among the test systems are KM12 colon; SN12C renal; HCT-15 colon; IGROV1 ovarian; UACC-257 melanoma; NCI-H460 lung; SF-268 CNS; 786-0 renal; SK-OV-3 ovarian; NCI-H522 lung.
Assay in all cases: inhibition of tumour cell growth, NCI panel, 48 h

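96-well plates; 48 h exposure; 5 concentrations. Endpoints by linear interpolation between flanking doses. Not reached: highest tested concentration assigned. GI50: concentration for 50% inhibition of growth. At the TGI there is no net growth.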

Regarding `COc1cc(OCCCN2CCCC2)ccc1Nc1ncc(Cl)c(Nc2ccccc2P(C)(C)=O)n1`, the GI50 is 2.63 µM with KM12 colon; 2.52 µM with SN12C renal; 3.67 µM in the experiment on HCT-15 colon; 1.41 µM with IGROV1 ovarian; 6.42 µM in the experiment with UACC-257 melanoma; 2.47 µM with NCI-H460 lung. Besides, the GI50 with SF-268 CNS was 2.49 µM; in the experiment with 786-0 renal it was 2.7 µM; in the experiment on SK-OV-3 ovarian, 2.3 µM; with NCI-H522 lung, 0.811 µM. Moreover, the TGI in the experiment with KM12 colon was 11 µM; in the experiment with SN12C renal, 25.5 µM; in the experiment on HCT-15 colon it was more than 46.6 µM; in the experiment on IGROV1 ovarian, 22.5 µM; in the experiment with UACC-257 melanoma, 24 µM; in the experiment with NCI-H460 lung it was 12 µM. Besides, the TGI in the experiment on SF-268 CNS worked out at 10.6 µM; in the experiment on 786-0 renal it was 11.6 µM; in the experiment with SK-OV-3 ovarian, 6.41 µM; in the experiment on NCI-H522 lung it was 3.95 µM.

For `CC(=O)CCc1ccc(Oc2c3ccccc3nc3occc23)cc1`, the GI50 with KM12 colon was 16.1 µM; in the experiment on SN12C renal it was 26.7 µM; with HCT-15 colon, 18.6 µM; in the experiment with IGROV1 ovarian, 33.9 µM; in the experiment with UACC-257 melanoma, 14.4 µM; in the experiment on NCI-H460 lung it was 15.6 µM. Further, the GI50 was 18.9 µM in the experiment with SF-268 CNS, 18.5 µM in the experiment with 786-0 renal, 17.8 µM in the experiment with SK-OV-3 ovarian and 26.9 µM in the experiment on NCI-H522 lung. Also, the TGI in the experiment on KM12 colon is 40 µM; with SN12C renal, 96.5 µM; in the experiment on HCT-15 colon it was 73.7 µM; in the experiment with IGROV1 ovarian, more than 100 µM; with UACC-257 melanoma it was 28 µM; in the experiment with NCI-H460 lung it was 31.9 µM. For the same molecule, the TGI in the experiment on SF-268 CNS is 38.1 µM; in the experiment with 786-0 renal, 45.2 µM; in the experiment with SK-OV-3 ovarian, 41.4 µM; in the experiment with NCI-H522 lung it was more than 100 µM.

As for `COc1ccc2c(c1)/C(=C\c1c(-c3ccccc3)nc3sccn13)C(=O)N2`, the GI50 in the experiment with KM12 colon is 1.55 µM; in the experiment with SN12C renal, 9.57 µM; with IGROV1 ovarian it was 13.9 µM; in the experiment on UACC-257 melanoma it was 28.7 µM; with NCI-H460 lung, 7.08 µM; with SF-268 CNS, 2.11 µM. For the same molecule, the GI50 is 9.01 µM in the experiment with 786-0 renal and 27 µM in the experiment with NCI-H522 lung. For the same molecule, the TGI is more than 26.6 µM in the experiment on SN12C renal; more than 35.6 µM in the experiment with HCT-15 colon; 52.3 µM in the experiment on IGROV1 ovarian; 89.3 µM with UACC-257 melanoma; more than 24.4 µM in the experiment with NCI-H460 lung; 13.4 µM in the experiment with SF-268 CNS. Also, the values for the TGI in the experiment with 786-0 renal, with SK-OV-3 ovarian and in the experiment with NCI-H522 lung were 31.2 µM, more than 65.8 µM and 67.3 µM, respectively.

Consider `C[C@]12CC[C@@H]3c4ccc(O)cc4CC[C@H]3[C@@H]1CC(Cc1ccccc1)(Cc1ccccc1)C2=O`, for which the GI50 with KM12 colon was 11.5 µM; in the experiment on SN12C renal it was 14.8 µM; with HCT-15 colon, 13.9 µM; with IGROV1 ovarian, 20.3 µM; in the experiment with UACC-257 melanoma, 18.4 µM; with NCI-H460 lung it was 12.1 µM. Besides, the GI50 in the experiment on SF-268 CNS was 21.2 µM; with 786-0 renal, 13.6 µM; with SK-OV-3 ovarian, 21.2 µM; in the experiment on NCI-H522 lung it was 16.6 µM. Also, the TGI in the experiment with KM12 colon is 38 µM; in the experiment on SN12C renal, 29.2 µM; in the experiment on HCT-15 colon, 28.7 µM; in the experiment with IGROV1 ovarian it was 41.5 µM; with UACC-257 melanoma it was 39.5 µM; with NCI-H460 lung, 38.1 µM. The TGI in the experiment on SF-268 CNS came to 58.3 µM; with 786-0 renal, 26.7 µM; in the experiment with SK-OV-3 ovarian, 37.4 µM; in the experiment on NCI-H522 lung it was 36.3 µM.

As for `O=c1cc(-c2ccccc2)oc2c(O)c(O)ccc12`, the GI50 in the experiment on KM12 colon was 10.3 µM; in the experiment on SN12C renal, 12.2 µM; in the experiment with HCT-15 colon it was 5.45 µM; in the experiment on IGROV1 ovarian it was 6.99 µM; in the experiment with UACC-257 melanoma, 18.6 µM; in the experiment on NCI-H460 lung, 4.44 µM. Further, the GI50 with SF-268 CNS was 6.4 µM; in the experiment with 786-0 renal it was 5.99 µM; in the experiment on SK-OV-3 ovarian, 23.8 µM; with NCI-H522 lung it was 8.27 µM. In addition, the TGI is more than 100 µM in the experiment on KM12 colon; more than 100 µM with SN12C renal; more than 100 µM in the experiment with HCT-15 colon; 47.1 µM in the experiment on IGROV1 ovarian; 88.5 µM in the experiment on UACC-257 melanoma; more than 100 µM with NCI-H460 lung. Also, the TGI with SF-268 CNS was more than 100 µM; in the experiment with 786-0 renal, 75.1 µM; in the experiment with SK-OV-3 ovarian, more than 100 µM; in the experiment with NCI-H522 lung, more than 100 µM.

`CCCCNC(=O)Oc1ccc(/C(=C(\C)c2ccc(OC)cc2)c2ccc(OCCN3CCCCC3)cc2)cc1`: the GI50 with KM12 colon is 2.35 µM; with SN12C renal, 2.21 µM; in the experiment with HCT-15 colon it was 1.67 µM; in the experiment with IGROV1 ovarian it was 2.6 µM; in the experiment on UACC-257 melanoma, 2.72 µM; in the experiment with NCI-H460 lung it was 1.94 µM. The GI50 in the experiment with SF-268 CNS was 5.55 µM; in the experiment with 786-0 renal, 1.47 µM; with SK-OV-3 ovarian it was 7.63 µM; with NCI-H522 lung, 3.42 µM. The TGI in the experiment on KM12 colon was 5.91 µM; in the experiment on SN12C renal it was 6.01 µM; with HCT-15 colon, 4.52 µM; in the experiment on IGROV1 ovarian it was 6.46 µM; with UACC-257 melanoma it was 6.71 µM; with NCI-H460 lung it was 3.86 µM. Besides, the TGI with SF-268 CNS came out at 20.5 µM; with 786-0 renal, 2.83 µM; in the experiment with SK-OV-3 ovarian, 25 µM; in the experiment with NCI-H522 lung it was 11.4 µM.

In the case of `CSc1nc2c(nc(N)n2C2OC(CO)C(O)C(O)C2O)c(=O)[nH]1` (stereo not given), the TGI in the experiment with KM12 colon, in the experiment with SN12C renal, in the experiment on IGROV1 ovarian, in the experiment with UACC-257 melanoma, in the experiment with NCI-H460 lung and in the experiment with SF-268 CNS was more than 100 µM throughout. Also, the TGI with 786-0 renal, in the experiment on SK-OV-3 ovarian and in the experiment on NCI-H522 lung was more than 100 µM each time.

For the molecule `O=c1cccccc1O`, the TGI in the experiment on KM12 colon, with HCT-15 colon, in the experiment with IGROV1 ovarian, in the experiment with UACC-257 melanoma, with NCI-H460 lung and with SF-268 CNS was more than 100 µM each time. Moreover, the TGI with 786-0 renal, with SK-OV-3 ovarian and in the experiment with NCI-H522 lung was more than 100 µM each time.

Source of the values: PubChem BioAssay (NCI).
